Test results taken from patent publication US6916472B2, “PON3 and uses thereof” (Regents of the University of Michigan, priority 2000, dated 2005).

Tests used:
rabbit serum PON1 = target: T1, rabbit serum PON1 (Oryctolagus cuniculus, UniProt P27170); assay: Hydrolytic activity of purified rabbit serum PON1 with paraoxon, aromatic esters and lactones; format: biochemical; conditions: 25° C.
T1 construct: PON 1 was purified further by pooling the fractions with highest arylesterase activity from a second DEAE column; from tissue; host or cells: rabbit serum
Description: (§1) Esterase activities with substrates: phenyl acetate, S-phenyl thioacetate, α-naphtyl acetate and paraoxon were measured as described by Kuo and La Du (Kuo and La Du, Drug Metab. Dispos., 23:335 [1995]; Qan et al., Drug Metab Dispos, 19:100-106 [1991]. For example, arylesterase activity is measured using a molar difference extinction coefficient (difference in extinction coefficients of phenol vs. phenol acetate) of 1,310 M^−1 cm^−1, at 270 nm with 1.0 mM phenyl acetate in 50 mM Tris/HCl (pH 8.0):1.0 mM CaCl2 buffer (Gan et al., supra). For the hydrolysis of thiophenyl acetate, the substrate is dissolved in methanol, and the reaction cuvettes contain 1.0 mM substrate in 50 mM Tris/HCl (pH 8.0):1.0 mM CaCl2 buffer. The product, thiophenol, reacts with 5,5′-dithiobis(2-nitrobenzoic acid), and activity is calculated from a molar difference extinction coefficient of 13,600 M^−1 cm^−1 at 412 nm (Augustinsson and Axenfors, Anal. Biochem., 48:428 [1972]). For the hydrolysis of α-naphtyl acetate, substrates are dissolved in ethylene glycol monomethyl ether, and the reaction cuvettes contain 0.5 mM substrate in 50 mM Tris/HCl (pH 8.0):1.0 mM CaCl2 buffer. Enzymatic activities are calculated from the molar extinction coefficients of 23,170 M^−1 cm^−1 at 235 nm. PON activity is measured with 1.0 mM paraoxon in 50 mM glycine:NaOH buffer (pH 10.5):1.0 mM CaCl2 with or without 1.0 M NaCl. Enzymatic activities were calculated from a molar extinction coefficient of 18,290 M^−1 cm^−1 at 412 nm (Gan et al., supra). All enzymatic assays are performed at 25° C. For each assay, 5 μl of purified PON (1.5-2.5 μg of enzyme protein) is added to an assay cuvette. For all substrates, one unit of enzymatic activity is defined as 1 μmol of substrate hydrolyzed/min.
(§2) Hydrolysis of aromatic lactones was monitored by the increase in UV absorbance at 270 nm (dihydrocoumarin), 274 nm (2-coumaranone), and 290 nm (homogentisic acid lactone). Lactones were purchased from Sigma. In a typical experiment a cuvette contained 1 mM substrate (from a […] stock solution, dissolved in methanol) in 50 mM Tris/HCl (pH 8.0), 1 mM CaCl2 and 5-20 μl enzyme source in a total volume of 1 ml. The molar difference extinction coefficients (difference in extinction coefficients of substrate and product) used to calculate the rate of hydrolysis were 1295, 876, and 816 M^−1 cm^−1 for dihydrocoumarin, 2-coumaranone and homogentisic acid lactone, respectively.
(§3) The hydrolysis of other lactones was followed by a calorimetric assay with phenol red (Billecke, et al., Chem Biol Interact, 119-120:251-256, [1999]). The reaction cuvette contained 1 mM substrate (from a 100 mM stock solution, dissolved in methanol) in 2 mM HEPES at starting pH 8.0, 1 mM CaCl2, 0.004% (106 μM) phenol red, 0.005% bovine albumin, and 5-20 μl enzyme solution in a total volume of 1 ml. The rate of acid production was followed by monitoring the increase in absorbance at 422 nm as the color changed from red to yellow. The rate of hydrolysis was derived from a calibration curve obtained using known amounts of HCl.
(§4) All the above assays (Sections, A, B, and C) were performed at 25° C. using a dual beam Cary 3E […] Spectrophotometer (Varian). Reference cuvettes containing the appropriate buffer plus substrate were used in each assay to correct for any spontaneous hydrolysis.

rabbit serum PON3 = target: T2, rabbit serum PON3 (Oryctolagus cuniculus, UniProt Q9BGN0); assay: Hydrolytic activity of purified rabbit serum PON3 with paraoxon, aromatic esters and lactones; format: biochemical; conditions: for PON3 (rate of hydrolysis of substrate) / PON3 hydrolytic activity with substrate (in words): purified rabbit serum PON3; for PON3 (rate of hydrolysis of substrate): 25° C.; for PON1/PON3 Ratio: ratio of hydrolysis rates of PON1 and PON3
T2 construct: from tissue; host or cells: rabbit serum
Description: as §1, §2, §3, §4

PON3 = target: T3, PON3 (Oryctolagus cuniculus, UniProt Q9BGN0); assay: Hydrolysis of statin lactones by PON3; format: biochemical, rabbit
T3 construct: from tissue; host or cells: rabbit serum
Description: The hydrolysis of the statin lactones (mevastatin, lovastatin and simvastatin) was analyzed by high performance liquid chromatography (HPLC) using a Beckman System Gold HPLC with a Model 126 Programmable Solvent Module, a Model 168 Diode Array Detector set at 238 nm, a Model 7125 Rheodyne manual injector valve with a 20 μl loop, and a Beckman ODS Ultrasphere column (C 18, 250×4.6 mm, 5 μm). Lovastatin (Mevacor) and simvastatin were purchased as 20 mg tablets from Merck, from which the lactones were extracted with chloroform, evaporated to dryness and redissolved in methanol. Mevastatin was purchased from Sigma.
In a final volume of 1 ml, 10-200 μl of enzyme solution and 10 μl of substrate solution in methanol (0.5 mg/ml) were incubated at 25° C. in 50 mM Tris/HCl (pH 7.6), 1 mM CaCl2. […]
Samples were eluted isocratically at a flow rate of 1.0 ml/min with a mobile phase consisting of the following: A=acetic acid/acetonitrile/water (2:249:249, v/v/v) and B=acetonitrile, in A/B ratios of 50/50, 45/55 and 40/60 for mevastatin, lovastatin and simvastatin, respectively. […] Response factors for the acid products were calculated from the peak heights after complete alkaline hydrolysis of the lactones in 0.02 M NAOH for 2-24 hours at 25° C.

T2 sequence (Q9BGN0 2-354 limits assumed): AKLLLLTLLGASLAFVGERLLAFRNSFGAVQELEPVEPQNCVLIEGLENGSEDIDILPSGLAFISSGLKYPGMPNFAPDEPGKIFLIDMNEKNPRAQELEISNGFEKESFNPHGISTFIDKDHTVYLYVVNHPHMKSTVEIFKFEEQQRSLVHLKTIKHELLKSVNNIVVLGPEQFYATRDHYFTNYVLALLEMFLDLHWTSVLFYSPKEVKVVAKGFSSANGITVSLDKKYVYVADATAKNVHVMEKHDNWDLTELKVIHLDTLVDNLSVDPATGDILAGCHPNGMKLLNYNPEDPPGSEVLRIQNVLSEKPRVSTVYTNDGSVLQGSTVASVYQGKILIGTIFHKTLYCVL
T1 sequence (P27170 whole entry Y185T): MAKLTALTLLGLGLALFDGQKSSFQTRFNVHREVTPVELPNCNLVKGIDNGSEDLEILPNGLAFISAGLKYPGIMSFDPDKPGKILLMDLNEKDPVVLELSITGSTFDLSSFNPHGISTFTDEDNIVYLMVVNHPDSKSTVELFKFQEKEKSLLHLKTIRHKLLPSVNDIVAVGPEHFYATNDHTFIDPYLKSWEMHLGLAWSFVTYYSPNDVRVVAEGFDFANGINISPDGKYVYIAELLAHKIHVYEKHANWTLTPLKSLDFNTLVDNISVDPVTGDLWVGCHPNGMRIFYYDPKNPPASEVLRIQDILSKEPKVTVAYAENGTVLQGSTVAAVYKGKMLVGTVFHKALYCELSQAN
T3 sequence (Q9BGN0 2-354 limits assumed): as the sequence (Q9BGN0 2-354 limits assumed) above

O=C1Cc2ccccc2O1 [2-Coumaronone]
PON1 (rate of hydrolysis of substrate) (rabbit serum PON1): 136.6 µmol/min/mg | PON3 (rate of hydrolysis of substrate) (rabbit serum PON3): 32.4 µmol/min/mg | PON1/PON3 Ratio (rabbit serum PON3): 4.0

CCOP(=O)(OCC)Oc1ccc([N+](=O)[O-])cc1 [Paraoxon]
PON1 (rate of hydrolysis of substrate) (rabbit serum PON1): 4.76 µmol/min/mg | PON3 hydrolytic activity with substrate (in words) (rabbit serum PON3): very poor substrates | PON3 (rate of hydrolysis of substrate) (rabbit serum PON3): <0.0075^1 μmol/min/mg | PON1/PON3 Ratio (rabbit serum PON3): 638

CC(=O)Oc1ccccc1 [Phenyl Acetate]
PON1 (rate of hydrolysis of substrate) (rabbit serum PON1): 768.7 µmol/min/mg | PON3 hydrolytic activity with substrate (in words) (rabbit serum PON3): very poor substrates | PON3 (rate of hydrolysis of substrate) (rabbit serum PON3): 1.0 µmol/min/mg | PON1/PON3 Ratio (rabbit serum PON3): 769

CC[C@H](C)C(=O)O[C@H]1C[C@@H](C)C=C2C=C[C@H](C)[C@H](CC[C@@H]3C[C@@H](O)CC(=O)O3)[C@H]21 [lovastatin]
hydrolysis of lactone drug by PON3 (in words) (PON3): can also hydrolyse

CC1=CCC(=O)O1 [α-Angelica lactone]
PON1 (rate of hydrolysis of substrate) (rabbit serum PON1): 175.1 µmol/min/mg | PON3 (rate of hydrolysis of substrate) (rabbit serum PON3): 3.4 µmol/min/mg | PON1/PON3 Ratio (rabbit serum PON3): 52

O=C1Oc2ccccc2C1Br (stereo not drawn) [α-Br-2-Coumaronone]
PON1 (rate of hydrolysis of substrate) (rabbit serum PON1): 270.1 µmol/min/mg | PON3 (rate of hydrolysis of substrate) (rabbit serum PON3): 2.8 µmol/min/mg | PON1/PON3 Ratio (rabbit serum PON3): 97

CC(=O)Oc1ccc2ccccc2c1 [β-Naphtyl Acetate]
PON1 (rate of hydrolysis of substrate) (rabbit serum PON1): 138.8 µmol/min/mg | PON3 (rate of hydrolysis of substrate) (rabbit serum PON3): 4.6 µmol/min/mg | PON1/PON3 Ratio (rabbit serum PON3): 30

CCCCC1OC(=O)CC1C (stereo not drawn) [β-methyl-γ-octalactone]
PON1 (rate of hydrolysis of substrate) (rabbit serum PON1): 34.8 µmol/min/mg | PON3 (rate of hydrolysis of substrate) (rabbit serum PON3): 3 µmol/min/mg | PON1/PON3 Ratio (rabbit serum PON3): 12

CCCCCCC1CCC(=O)O1 (stereo not drawn) [γ-Decalactone]
PON1 (rate of hydrolysis of substrate) (rabbit serum PON1): 92 µmol/min/mg | PON3 (rate of hydrolysis of substrate) (rabbit serum PON3): 50.2 µmol/min/mg | PON1/PON3 Ratio (rabbit serum PON3): 1.8

CCCC1CCC(=O)O1 (stereo not drawn) [γ-Heptalactone]
PON1 (rate of hydrolysis of substrate) (rabbit serum PON1): 107 µmol/min/mg | PON3 (rate of hydrolysis of substrate) (rabbit serum PON3): 8.6 µmol/min/mg | PON1/PON3 Ratio (rabbit serum PON3): 12

CCCCCC1CCC(=O)O1 (stereo not drawn) [γ-Nonalactone]
PON1 (rate of hydrolysis of substrate) (rabbit serum PON1): 79.6 µmol/min/mg | PON3 (rate of hydrolysis of substrate) (rabbit serum PON3): 60 µmol/min/mg | PON1/PON3 Ratio (rabbit serum PON3): 1.3

CCCCC1CCC(=O)O1 (stereo not drawn) [γ-Octalactone]
PON1 (rate of hydrolysis of substrate) (rabbit serum PON1): 104.5 µmol/min/mg | PON3 (rate of hydrolysis of substrate) (rabbit serum PON3): 29 µmol/min/mg | PON1/PON3 Ratio (rabbit serum PON3): 3.6

CCCCCCCC1CCC(=O)O1 (stereo not drawn) [γ-Undecalactone]
PON1 (rate of hydrolysis of substrate) (rabbit serum PON1): 87.4 µmol/min/mg | PON3 (rate of hydrolysis of substrate) (rabbit serum PON3): 44.2 µmol/min/mg | PON1/PON3 Ratio (rabbit serum PON3): 2

CC1CCC(=O)O1 (stereo not drawn) [γ-Valerolactone]
PON1 (rate of hydrolysis of substrate) (rabbit serum PON1): 78.4 µmol/min/mg | PON3 (rate of hydrolysis of substrate) (rabbit serum PON3): 3.0 µmol/min/mg | PON1/PON3 Ratio (rabbit serum PON3): 26

C=C1CCC(=O)O1 [γ-methylene-γ-butyrolactone]
PON1 (rate of hydrolysis of substrate) (rabbit serum PON1): 622 µmol/min/mg | PON3 (rate of hydrolysis of substrate) (rabbit serum PON3): 12 µmol/min/mg | PON1/PON3 Ratio (rabbit serum PON3): 52

O=C1CCC(c2ccccc2)O1 (stereo not drawn) [γ-phenyl-γ-butyrolactone]
PON1 (rate of hydrolysis of substrate) (rabbit serum PON1): 203 µmol/min/mg | PON3 (rate of hydrolysis of substrate) (rabbit serum PON3): 20.4 µmol/min/mg | PON1/PON3 Ratio (rabbit serum PON3): 10

CCCCCC1CCCC(=O)O1 (stereo not drawn) [δ-Decalactone]
PON1 (rate of hydrolysis of substrate) (rabbit serum PON1): 134.8 µmol/min/mg | PON3 (rate of hydrolysis of substrate) (rabbit serum PON3): 73 µmol/min/mg | PON1/PON3 Ratio (rabbit serum PON3): 1.8

CCCCCCCC1CCCC(=O)O1 (stereo not drawn) [δ-Dodecalactone]
PON1 (rate of hydrolysis of substrate) (rabbit serum PON1): 179.4 µmol/min/mg | PON3 (rate of hydrolysis of substrate) (rabbit serum PON3): 98.2 µmol/min/mg | PON1/PON3 Ratio (rabbit serum PON3): 1.8

CC1CCCC(=O)O1 (stereo not drawn) [δ-Hexalactone]
PON1 (rate of hydrolysis of substrate) (rabbit serum PON1): 207 µmol/min/mg | PON3 (rate of hydrolysis of substrate) (rabbit serum PON3): 3.6 µmol/min/mg | PON1/PON3 Ratio (rabbit serum PON3): 58

CCCCC1CCCC(=O)O1 (stereo not drawn) [δ-Nonalactone]
PON1 (rate of hydrolysis of substrate) (rabbit serum PON1): 142 µmol/min/mg | PON3 (rate of hydrolysis of substrate) (rabbit serum PON3): 44 µmol/min/mg | PON1/PON3 Ratio (rabbit serum PON3): 3.4

δ-Undecalactone
PON1 (rate of hydrolysis of substrate) (rabbit serum PON1): 186.8 µmol/min/mg | PON3 (rate of hydrolysis of substrate) (rabbit serum PON3): 90 µmol/min/mg | PON1/PON3 Ratio (rabbit serum PON3): 2.1
